pIC50: −log10 of the molar value. Activity calls are given as the source filed them. The calls are words filed in the database; no cut-off is given here.
Assays:
A549 = test: Cytotoxicity against human A549 cells assessed as cell viability by MTT assay; type: functional, cell-based
MDA-MB-231 [1] = test: Inhibition of colony formation in human MDA-MB-231 cells assessed as reduction in colony formation treated for 10 days medium refreshed every two days by crustal violet based assay; type: functional, cell-based; details: time 10.0 day
MDA-MB-231 [2] = test: Anti-tumor activity against human MDA-MB-231 cells assessed as change in TGF-beta1/Smad signaling pathway by measuring fluorescence intensity of p-Smad3 level at 2 to 4 uM after 24 hrs incubation by immunofluorescence staining assay; type: functional, cell-based; details: dose 2-4 µM
4T1 [3] = test: Induction of cell cycle arrest in mouse 4T1 cells assessed as accumulation of cells at G0/G1 phase at 1.5 uM measured after 24 hrs by PI staining by flow cytometry; type: functional
MDA-MB-231 [4] = test: Induction of apoptosis in human MDA-MB-231 cells assessed as increase in apoptotic rate at 4 uM incubated for 24 hrs by Annexin V-FITC/PI double staining by flow cytometry; type: functional
MDA-MB-231 [5] = test: Anti-proliferative activity against human MDA-MB-231 cells assessed as cell viability measured after 24 hrs by MTT assay; type: functional, cell-based; details: dose 1-8 µM
4T1 [6] = test: Inhibition of colony formation in mouse 4T1 cells assessed as reduction in colony formation treated for 10 days medium refreshed every two days by crustal violet based assay; type: functional, cell-based; details: time 10.0 day
MDA-MB-231 [7] = test: Induction of apoptosis in human MDA-MB-231 cells assessed as decrease in Bcl-2 expression at 1 to 4 uM incubated for 24 hrs by Western blotting analysis; type: functional, cell-based; details: dose 1-4 µM
MDA-MB-231 [8] = test: Induction of apoptosis in human MDA-MB-231 cells assessed as increase in cleaved caspase 3 expression at 1 to 4 uM incubated for 24 hrs by Western blotting analysis; type: functional, cell-based; details: dose 1-4 µM
MDA-MB-231 [9] = test: Reduction of ATP level in human MDA-MB-231 cells incubated for 24 hrs by colorimetric based ATP Content Assay Kit; type: functional, cell-based; details: dose 1-4 µM
MCF7 = test: Cytotoxicity against human MCF7 cells assessed as cell viability by MTT assay; type: functional, cell-based
MDA-MB-231 [10] = test: Induction of mitochondrial membrane potential loss in human MDA-MB-231 cells assessed as increase in fluorescence intensity by JC-1 monomer assay; type: functional, cell-based; details: dose 2-4 µM
4T1 [11] = test: Induction of cell cycle arrest in mouse 4T1 cells assessed as accumulation of cells at G0/G1 phase at 6 uM measured after 24 hrs by PI staining by flow cytometry; type: functional
MDA-MB-231 [12] = test: Induction of DNA damage in human MDA-MB-231 cells assessed as increase in gamma-H2AX focal expression at 2 to 4 uM by immunofluorescence staining assay; type: functional, cell-based; details: dose 2-4 µM
[13] = Cytotoxicity against human BEAS-2B cells assessed as cell viability by MTT assay; type: toxicity, cell-based
4T1 [14] = test: Anti-proliferative activity against mouse 4T1 cells assessed as cell viability measured after 24 hrs by MTT assay; type: functional, cell-based; details: dose 1-8 µM
4T1 [15] = test: Induction of apoptosis in mouse 4T1 cells assessed as increase in apoptotic rate at 1.5 uM incubated for 24 hrs by Annexin V-FITC/PI double staining by flow cytometry; type: functional
MDA-MB-231 [16] = test: Induction of cell cycle arrest in human MDA-MB-231 cells assessed as reduction in cyclin E1 expression at 1 to 4 uM measured after 24 hrs by immunoblotting assay; type: functional, cell-based; details: dose 1-4 µM
4T1 [17] = test: Induction of cell cycle arrest in mouse 4T1 cells assessed as accumulation of cells at G0/G1 phase measured after 24 hrs in presence of SB-431542 TGF-beta signaling inhibitor by PI staining by flow cytometry; type: functional, cell-based
4T1 [18] = test: Reduction of ATP level in mouse 4T1 cells incubated for 24 hrs by colorimetric based ATP Content Assay Kit; type: functional, cell-based; details: dose 1-4 µM
MDA-MB-231 [19] = test: Induction of cell cycle arrest in human MDA-MB-231 cells assessed as reduction in cyclin D1 expression at 1 to 4 uM measured after 24 hrs by immunoblotting assay; type: functional, cell-based; details: dose 1-4 µM
MDA-MB-231 [20] = test: Induction of mitochondrial membrane potential loss in human MDA-MB-231 cells assessed as decrease in fluorescence intensity by JC-1 aggregate assay; type: functional, cell-based; details: dose 2-4 µM
MDA-MB-231 [21] = test: Induction of apoptosis in human MDA-MB-231 cells assessed as increase in Bax expression at 1 to 4 uM incubated for 24 hrs by Western blotting analysis; type: functional, cell-based; details: dose 1-4 µM
4T1 [22] = test: Induction of DNA damage in mouse 4T1 cells assessed as increase in gamma-H2AX focal expression at 2 to 4 uM by immunofluorescence staining assay; type: functional, cell-based; details: dose 2-4 µM
HeLa = test: Cytotoxicity against human HeLa cells assessed as cell viability by MTT assay; type: functional, cell-based
MDA-MB-231 [23] = test: Anti-invasive activity in human MDA-MB-231 cells assessed as reduction in cell invasion incubated for 24 hrs by Transwell assay; type: functional, cell-based; details: dose 3-6 µM
MDA-MB-231 [24] = test: Induction of cell cycle arrest in human MDA-MB-231 cells assessed as upregulation of p21 protein expression at 1 to 4 uM measured after 24 hrs by immunoblotting assay; type: functional, cell-based; details: dose 1-4 µM
4T1 [25] = test: Anti-invasive activity in mouse 4T1 cells assessed as reduction in cell invasion incubated for 24 hrs by Transwell assay; type: functional, cell-based; details: dose 3-6 µM
4T1 [26] = test: Induction of mitochondrial membrane potential loss in mouse 4T1 cells assessed as increase in fluorescence intensity by JC-1 monomer assay; type: functional, cell-based; details: dose 2-4 µM
MDA-MB-231 [27] = test: Antimigratory activity against human MDA-MB-231 cells assessed as decrease in migration of tumor cells into scratching region at 8 to 10 uM incubated for 12 to 24 hrs by Wound healing assay; type: functional, cell-based; details: dose 8-10 µM, time 12-24 hrs

O=C1C[C@@H](c2ccccc2)Oc2cc(O)c([C@H](/C=C/C[C@@H](O)CCc3ccccc3)c3ccccc3)c(O)c21
pIC50 (A549): 5.49 | inhibition (MDA-MB-231 [1]): Dose-Dependent Effect | Activity (MDA-MB-231 [2]): Active | Activity (4T1 [3]): 55.78% | Activity (MDA-MB-231 [4]): 46.4% | Activity (MDA-MB-231 [5]): Dose-Dependent Effect | inhibition (4T1 [6]): Dose-Dependent Effect | Activity (MDA-MB-231 [7]): Active | Activity (MDA-MB-231 [8]): Active | inhibition (MDA-MB-231 [9]): Active | pIC50 (MCF7): 5.06 | Activity (MDA-MB-231 [10]): Dose-Dependent Effect | Activity (4T1 [11]): 78.34% | Activity (MDA-MB-231 [12]): Active | pIC50 [13]: 5.28 | Activity (4T1 [14]): Dose-Dependent Effect | Activity (4T1 [15]): 6.84% | Activity (MDA-MB-231 [16]): Active | Activity (4T1 [17]): inactive | inhibition (4T1 [18]): Active | Activity (MDA-MB-231 [19]): Active | Activity (MDA-MB-231 [20]): Dose-Dependent Effect | Activity (MDA-MB-231 [21]): Active | Activity (4T1 [22]): Active | pIC50 (HeLa): 5.66 | Activity (MDA-MB-231 [23]): Dose-Dependent Effect | Activity (MDA-MB-231 [24]): Active | Activity (4T1 [25]): Dose-Dependent Effect | Activity (4T1 [26]): Dose-Dependent Effect | Activity (MDA-MB-231 [27]): Active

— ChEMBL document CHEMBL5505987 (Eur J Med Chem, 2024)
